Ten molecules from the supplement of paper PMC10307832 can be followed below.

Holding throughout (assay): relative viability (nuclei count vs DMSO), 5 days (fraction); higher = more cells survive
One assay relates to NCI-H1703. The method in brief: (§1)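 Relative viability was taken as the ratio of nuclei in treated wells to nuclei in vehicle wells. Lung cancer cell lines in 1536-well plates received compounds by pin tool one day after seeding, either one drug alone or a fixed anchor-drug dose plus five library-drug doses (not always all listed) in √10 steps. Nuclei were counted on 4× images after 5 days of treatment, and values are medians of duplicate plates.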

For another assay, the system named is NCI-H2126. The method in brief: as §1
The test system of another assay is NCI-H1648. The method in brief: as §1
A further assay has as its system A549. The essentials:
as §1

The subject of a further assay is IA-LM. The method in brief: as §1

In the case of `COc1cc(N2CCC(C(N)=O)CC2)ccc1Nc1nc(N)c(Cl)c(Nc2ccccc2S(=O)(=O)C(C)C)n1` [HG-5-88-01] + NC(=O)Nc1cc(-c2cccc(F)c2)sc1C(=O)N[C@H]1CCCNC1 [AZD7762] (partner 0.2 µM), the relative viability was 0.106 with NCI-H1703 (first compound 0.04 µM); 0.133 in the assay on NCI-H1703 (first compound 0.1265 µM); 0.122 with NCI-H1703 (first compound 1.265 µM); 0.124 in the assay on NCI-H1703 (first compound 4 µM); 0.985 with NCI-H2126 (first compound 0.04 µM); 1.05 in the assay with NCI-H2126 (first compound 0.1265 µM). Besides, the relative viability in the assay with NCI-H2126 (first compound 0.4 µM) stood at 0.961; in the assay with NCI-H2126 (first compound 1.265 µM), 1.05; with NCI-H2126 (first compound 4 µM), 0.828; with NCI-H1648 (first compound 0.04 µM), 0.63; in the assay with NCI-H1648 (first compound 0.1265 µM), 0.624; with NCI-H1648 (first compound 0.4 µM) it was 0.695. Further, the relative viability was found to be 0.683 in the assay on NCI-H1648 (first compound 1.265 µM) and 0.654 in the assay with NCI-H1648 (first compound 4 µM).

As for `COc1cc(N2CCC(C(N)=O)CC2)ccc1Nc1nc(N)c(Cl)c(Nc2ccccc2S(=O)(=O)C(C)C)n1` [HG-5-88-01] + Nc1nc2[nH]cc(CCc3ccc(C(=O)N[C@@H](CCC(=O)O)C(=O)O)cc3)c2c(=O)[nH]1 [Pemetrexed] (partner 0.2 µM), the relative viability stood at 0.644 in the assay with NCI-H2126 (first compound 0.04 µM); 0.667 in the assay with NCI-H2126 (first compound 0.1265 µM); 0.68 in the assay on NCI-H2126 (first compound 0.4 µM); 0.641 in the assay with NCI-H2126 (first compound 1.265 µM); 0.452 in the assay with NCI-H2126 (first compound 4 µM); 0.772 in the assay on NCI-H1648 (first compound 0.04 µM). The relative viability in the assay on NCI-H1648 (first compound 0.1265 µM) stood at 0.719; in the assay on NCI-H1648 (first compound 0.4 µM), 0.605; with NCI-H1648 (first compound 1.265 µM), 0.596; in the assay on NCI-H1648 (first compound 4 µM) it was 0.562.

Consider `COc1cc(N2CCC(C(N)=O)CC2)ccc1Nc1nc(N)c(Cl)c(Nc2ccccc2S(=O)(=O)C(C)C)n1` [HG-5-88-01] + Nc1ncn([C@H]2C[C@H](O)[C@@H](CO)O2)c(=O)n1 [Decitabine] (partner 2 µM), for which the relative viability in the assay on NCI-H2126 (first compound 0.04 µM) came to 0.603; in the assay on NCI-H2126 (first compound 0.1265 µM), 0.586; in the assay with NCI-H2126 (first compound 0.4 µM) it was 0.568; with NCI-H2126 (first compound 1.265 µM), 0.6; in the assay on NCI-H2126 (first compound 4 µM), 0.556; in the assay on A549 (first compound 0.04 µM) it was 0.296. Moreover, the relative viability in the assay with A549 (first compound 0.1265 µM) was found to be 0.34; in the assay with A549 (first compound 0.4 µM), 0.274; in the assay on A549 (first compound 1.265 µM), 0.246; in the assay on A549 (first compound 4 µM), 0.388; in the assay on NCI-H1648 (first compound 0.04 µM), 0.5; in the assay with NCI-H1648 (first compound 0.1265 µM), 0.443. Further, the results for the relative viability in the assay with NCI-H1648 (first compound 0.4 µM), in the assay on NCI-H1648 (first compound 1.265 µM) and in the assay with NCI-H1648 (first compound 4 µM) were 0.457, 0.359 and 0.292, respectively.

As for `COc1cc(N2CCC(C(N)=O)CC2)ccc1Nc1nc(N)c(Cl)c(Nc2ccccc2S(=O)(=O)C(C)C)n1` [HG-5-88-01] + O=C(CCCCCCC(=O)Nc1ccccc1)NO [Vorinostat] (partner 1 µM), the relative viability in the assay with NCI-H2126 (first compound 0.04 µM) amounted to 0.653; with NCI-H2126 (first compound 0.1265 µM), 0.813; with NCI-H2126 (first compound 0.4 µM), 0.713; with NCI-H2126 (first compound 1.265 µM), 0.594; with NCI-H2126 (first compound 4 µM), 0.456; with IA-LM (first compound 0.04 µM) it was 1.03. Moreover, the relative viability with IA-LM (first compound 0.1265 µM) was 1.01; in the assay with IA-LM (first compound 0.4 µM), 0.776; in the assay with IA-LM (first compound 1.265 µM), 0.825; with IA-LM (first compound 4 µM) it was 0.899; in the assay on NCI-H1648 (first compound 0.04 µM), 0.616; in the assay with NCI-H1648 (first compound 0.1265 µM), 0.307. For the same molecule, the relative viability with NCI-H1648 (first compound 0.4 µM) turned out to be 0.626; with NCI-H1648 (first compound 1.265 µM), 0.308; with NCI-H1648 (first compound 4 µM), 0.301.

With `Clc1ccc(Nc2nnc(Cc3ccncc3)c3ccccc23)cc1` [Vatalanib] + CC(=O)Nc1cccc(-n2c(=O)n(C3CC3)c(=O)c3c(Nc4ccc(I)cc4F)n(C)c(=O)c(C)c32)c1 [Trametinib] (partner 0.02 µM), the relative viability is 0.539 in the assay on NCI-H2126 (first compound 0.04 µM); 0.612 in the assay on NCI-H2126 (first compound 0.1265 µM); 0.591 in the assay on NCI-H2126 (first compound 0.4 µM); 0.528 with NCI-H2126 (first compound 1.265 µM); 0.536 in the assay with NCI-H2126 (first compound 4 µM); 0.407 with NCI-H1648 (first compound 0.04 µM). In addition, the relative viability with NCI-H1648 (first compound 0.1265 µM) was 0.463; with NCI-H1648 (first compound 0.4 µM), 0.577; in the assay on NCI-H1648 (first compound 1.265 µM), 0.467; in the assay with NCI-H1648 (first compound 4 µM) it was 0.578.

`Clc1ccc(Nc2nnc(Cc3ccncc3)c3ccccc23)cc1` [Vatalanib] + CC(=O)c1c(C)c2cnc(Nc3ccc(N4CCNCC4)cn3)nc2n(C2CCCC2)c1=O [Palbociclib] (partner 0.5 µM): the relative viability with NCI-H2126 (first compound 0.04 µM) was determined as 0.314; with NCI-H2126 (first compound 0.1265 µM), 0.34; with NCI-H2126 (first compound 0.4 µM) it was 0.383; in the assay with NCI-H2126 (first compound 1.265 µM), 0.335; in the assay on NCI-H2126 (first compound 4 µM) it was 0.363; in the assay with NCI-H1648 (first compound 0.04 µM), 0.268. The relative viability turned out to be 0.307 in the assay on NCI-H1648 (first compound 0.1265 µM), 0.26 in the assay on NCI-H1648 (first compound 0.4 µM), 0.233 in the assay with NCI-H1648 (first compound 1.265 µM) and 0.302 with NCI-H1648 (first compound 4 µM).

For the molecule `Clc1ccc(Nc2nnc(Cc3ccncc3)c3ccccc23)cc1` [Vatalanib] + NC(=O)Nc1cc(-c2cccc(F)c2)sc1C(=O)N[C@H]1CCCNC1 [AZD7762] (partner 0.2 µM), the relative viability with NCI-H1703 (first compound 0.04 µM) amounted to 0.128; in the assay on NCI-H1703 (first compound 0.1265 µM), 0.14; in the assay on NCI-H1703 (first compound 0.4 µM) it was 0.126; in the assay on NCI-H1703 (first compound 4 µM), 0.109; in the assay with NCI-H2126 (first compound 0.04 µM), 0.994; with NCI-H2126 (first compound 0.1265 µM), 0.99. In addition, the relative viability with NCI-H2126 (first compound 0.4 µM) worked out at 1.02; with NCI-H2126 (first compound 1.265 µM), 0.995; in the assay with NCI-H2126 (first compound 4 µM), 1.07; in the assay with NCI-H1648 (first compound 0.04 µM) it was 0.528; in the assay on NCI-H1648 (first compound 0.1265 µM) it was 0.632; in the assay with NCI-H1648 (first compound 0.4 µM), 0.665. The relative viability in the assay with NCI-H1648 (first compound 1.265 µM) stood at 0.655; in the assay with NCI-H1648 (first compound 4 µM), 0.735.

For the molecule `Clc1ccc(Nc2nnc(Cc3ccncc3)c3ccccc23)cc1` [Vatalanib] + Nc1nc2[nH]cc(CCc3ccc(C(=O)N[C@@H](CCC(=O)O)C(=O)O)cc3)c2c(=O)[nH]1 [Pemetrexed] (partner 0.2 µM), the relative viability stood at 0.68 in the assay on NCI-H2126 (first compound 0.04 µM); 0.668 with NCI-H2126 (first compound 0.1265 µM); 0.731 in the assay on NCI-H2126 (first compound 0.4 µM); 0.592 in the assay on NCI-H2126 (first compound 1.265 µM); 0.602 in the assay with NCI-H2126 (first compound 4 µM); 0.67 in the assay with NCI-H1648 (first compound 0.04 µM). Besides, the relative viability in the assay on NCI-H1648 (first compound 0.1265 µM) came to 0.674; with NCI-H1648 (first compound 0.4 µM) it was 0.691; in the assay on NCI-H1648 (first compound 1.265 µM), 0.741; in the assay with NCI-H1648 (first compound 4 µM), 0.718.

Consider `Clc1ccc(Nc2nnc(Cc3ccncc3)c3ccccc23)cc1` [Vatalanib] + Nc1ncn([C@H]2C[C@H](O)[C@@H](CO)O2)c(=O)n1 [Decitabine] (partner 2 µM), for which the relative viability with NCI-H2126 (first compound 0.04 µM) was 0.514; in the assay on NCI-H2126 (first compound 0.1265 µM), 0.534; in the assay on NCI-H2126 (first compound 0.4 µM), 0.594; in the assay on NCI-H2126 (first compound 1.265 µM), 0.565; in the assay with NCI-H2126 (first compound 4 µM), 0.634; in the assay on A549 (first compound 0.04 µM) it was 0.238. Also, the relative viability with A549 (first compound 0.1265 µM) is 0.451; with A549 (first compound 0.4 µM), 0.313; in the assay on A549 (first compound 1.265 µM), 0.213; in the assay with A549 (first compound 4 µM), 0.295; with NCI-H1648 (first compound 0.04 µM), 0.497; in the assay with NCI-H1648 (first compound 0.1265 µM), 0.462. Further, the relative viability with NCI-H1648 (first compound 0.4 µM) worked out at 0.514; in the assay with NCI-H1648 (first compound 1.265 µM) it was 0.425; with NCI-H1648 (first compound 4 µM), 0.482.

With `Clc1ccc(Nc2nnc(Cc3ccncc3)c3ccccc23)cc1` [Vatalanib] + O=C(CCCCCCC(=O)Nc1ccccc1)NO [Vorinostat] (partner 1 µM), the relative viability in the assay on NCI-H2126 (first compound 0.04 µM) was 0.704; with NCI-H2126 (first compound 0.1265 µM) it was 0.835; with NCI-H2126 (first compound 0.4 µM), 0.837; with NCI-H2126 (first compound 1.265 µM), 0.766; in the assay on NCI-H2126 (first compound 4 µM), 0.691; with IA-LM (first compound 0.04 µM) it was 0.952. Further, the relative viability in the assay on IA-LM (first compound 0.1265 µM) was 1.24; in the assay on IA-LM (first compound 0.4 µM), 0.895; with IA-LM (first compound 1.265 µM), 0.99; with IA-LM (first compound 4 µM), 0.976; in the assay on NCI-H1648 (first compound 0.04 µM), 0.32; in the assay with NCI-H1648 (first compound 0.1265 µM), 0.644. In addition, the figures for the relative viability in the assay on NCI-H1648 (first compound 0.4 µM), with NCI-H1648 (first compound 1.265 µM) and in the assay with NCI-H1648 (first compound 4 µM) were 0.562, 0.42 and 0.444, respectively.
